Measurements from ChEMBL document CHEMBL5291721, “A preclinical secondary pharmacology resource illuminates target-adverse drug reaction associations of marketed drugs” (Nat Commun, 2023).
Where a SMILES comes first, the peptide text is derived from it. [ ]: non-standard residue; d: D form. pGlu = O=C1CC[C@@H](C(=O)O)N1; Thz = O=C(O)[C@@H]1CSCN1

Assays:
[1] = biological target: Glutamate receptor ionotropic, NMDA 1 (Rattus norvegicus, UniProt P35439)
[2] = biological target: Gamma-aminobutyric acid receptor subunit alpha-1 (Rattus norvegicus, UniProt P62813); format: functional
[3] = biological target: Vasopressin V2 receptor (Homo sapiens, UniProt P30518)
[4] = biological target: T1, Muscarinic acetylcholine receptor M2 (Homo sapiens, UniProt P08172); format: functional, cell-based
T1 sequence (P08172 whole entry): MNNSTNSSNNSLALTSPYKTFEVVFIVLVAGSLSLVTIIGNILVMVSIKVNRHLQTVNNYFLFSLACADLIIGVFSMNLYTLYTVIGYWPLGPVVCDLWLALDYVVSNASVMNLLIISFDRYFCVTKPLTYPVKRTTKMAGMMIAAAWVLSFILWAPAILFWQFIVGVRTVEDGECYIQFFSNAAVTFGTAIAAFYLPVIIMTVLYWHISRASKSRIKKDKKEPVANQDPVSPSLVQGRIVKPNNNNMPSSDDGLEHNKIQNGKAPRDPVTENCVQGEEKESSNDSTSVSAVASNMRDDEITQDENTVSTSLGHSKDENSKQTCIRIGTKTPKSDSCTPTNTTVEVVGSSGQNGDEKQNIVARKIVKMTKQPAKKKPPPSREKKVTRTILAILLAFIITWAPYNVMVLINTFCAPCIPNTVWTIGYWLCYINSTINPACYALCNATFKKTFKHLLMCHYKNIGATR

[5] = biological target: D(3) dopamine receptor (Homo sapiens, UniProt P35462)
[6] = biological target: T2, Alpha-2A adrenergic receptor (Homo sapiens, UniProt P08913); format: functional, cell-based
T2 sequence (P08913 whole entry): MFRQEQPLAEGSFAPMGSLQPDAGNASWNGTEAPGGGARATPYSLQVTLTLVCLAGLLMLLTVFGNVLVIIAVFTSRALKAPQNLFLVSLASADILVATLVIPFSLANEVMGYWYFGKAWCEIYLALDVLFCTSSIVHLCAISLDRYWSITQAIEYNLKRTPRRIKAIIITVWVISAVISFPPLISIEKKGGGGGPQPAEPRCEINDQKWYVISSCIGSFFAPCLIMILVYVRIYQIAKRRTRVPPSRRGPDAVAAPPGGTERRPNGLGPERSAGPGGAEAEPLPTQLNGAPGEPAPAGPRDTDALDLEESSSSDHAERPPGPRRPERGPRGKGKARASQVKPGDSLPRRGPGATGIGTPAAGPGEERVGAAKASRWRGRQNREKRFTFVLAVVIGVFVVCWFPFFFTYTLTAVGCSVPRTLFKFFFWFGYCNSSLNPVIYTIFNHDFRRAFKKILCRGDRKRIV

[7] = biological target: T3, Type-1 angiotensin II receptor (Homo sapiens, UniProt P30556)
T3 sequence (P30556 whole entry): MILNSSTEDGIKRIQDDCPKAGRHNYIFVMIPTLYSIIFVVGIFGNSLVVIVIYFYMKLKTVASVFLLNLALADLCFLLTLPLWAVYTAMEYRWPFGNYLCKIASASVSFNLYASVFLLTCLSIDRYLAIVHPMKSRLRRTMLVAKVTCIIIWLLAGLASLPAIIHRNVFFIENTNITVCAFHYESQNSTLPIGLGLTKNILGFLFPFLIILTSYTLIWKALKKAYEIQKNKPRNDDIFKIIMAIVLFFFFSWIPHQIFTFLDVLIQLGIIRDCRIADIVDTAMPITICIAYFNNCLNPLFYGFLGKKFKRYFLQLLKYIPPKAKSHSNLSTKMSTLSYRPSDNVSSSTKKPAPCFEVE

[8] = biological target: Histamine H2 receptor (Homo sapiens, UniProt P25021); format: functional, cell-based
[9] = biological target: T4, Alpha-1A adrenergic receptor (Homo sapiens, UniProt P35348); format: functional, cell-based
T4 sequence (P35348 whole entry): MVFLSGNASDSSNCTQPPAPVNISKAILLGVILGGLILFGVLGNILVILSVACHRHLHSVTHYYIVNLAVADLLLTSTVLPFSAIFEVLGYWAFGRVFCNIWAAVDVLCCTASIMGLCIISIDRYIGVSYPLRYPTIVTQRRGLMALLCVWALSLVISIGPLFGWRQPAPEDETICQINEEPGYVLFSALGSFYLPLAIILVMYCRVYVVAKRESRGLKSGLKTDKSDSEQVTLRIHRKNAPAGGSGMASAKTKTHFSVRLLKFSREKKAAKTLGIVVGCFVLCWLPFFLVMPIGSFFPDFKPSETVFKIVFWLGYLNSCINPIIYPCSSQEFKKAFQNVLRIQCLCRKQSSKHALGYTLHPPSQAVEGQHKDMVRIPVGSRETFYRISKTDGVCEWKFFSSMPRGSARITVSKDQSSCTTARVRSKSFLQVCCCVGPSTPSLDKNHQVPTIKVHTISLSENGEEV

[10] = biological target: Melanocortin receptor 3 (Homo sapiens, UniProt P41968)
[11] = biological target: T5, Adenosine receptor A1 (Homo sapiens, UniProt P30542)
T5 sequence (P30542 whole entry): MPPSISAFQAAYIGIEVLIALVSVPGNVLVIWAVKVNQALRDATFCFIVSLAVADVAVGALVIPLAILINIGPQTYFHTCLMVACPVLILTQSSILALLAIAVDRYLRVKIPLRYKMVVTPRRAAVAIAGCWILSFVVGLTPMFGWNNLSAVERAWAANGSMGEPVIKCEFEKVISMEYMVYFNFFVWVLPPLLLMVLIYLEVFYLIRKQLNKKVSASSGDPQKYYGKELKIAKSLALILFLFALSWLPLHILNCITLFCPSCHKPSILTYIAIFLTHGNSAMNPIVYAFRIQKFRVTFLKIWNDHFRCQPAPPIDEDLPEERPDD

[12] = biological target: Beta-1 adrenergic receptor (Homo sapiens, UniProt P08588); format: functional
[13] = biological target: Neuronal acetylcholine receptor subunit alpha-4 (Homo sapiens, UniProt P43681)
[14] = biological target: T6, Adenosine receptor A3 (Homo sapiens, UniProt P0DMS8)
T6 sequence (P0DMS8 whole entry): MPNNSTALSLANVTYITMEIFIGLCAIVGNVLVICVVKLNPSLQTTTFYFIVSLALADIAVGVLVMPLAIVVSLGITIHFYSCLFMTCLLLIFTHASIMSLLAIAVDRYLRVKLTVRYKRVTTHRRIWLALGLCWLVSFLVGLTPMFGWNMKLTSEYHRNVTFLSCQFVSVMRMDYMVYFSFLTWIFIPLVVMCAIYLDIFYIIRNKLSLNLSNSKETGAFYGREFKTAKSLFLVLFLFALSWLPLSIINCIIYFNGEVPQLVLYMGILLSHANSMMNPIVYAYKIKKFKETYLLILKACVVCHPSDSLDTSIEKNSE
Note: assay procedure not described here.

Sequence of Neuronal acetylcholine receptor subunit alpha-4 (P43681 whole entry): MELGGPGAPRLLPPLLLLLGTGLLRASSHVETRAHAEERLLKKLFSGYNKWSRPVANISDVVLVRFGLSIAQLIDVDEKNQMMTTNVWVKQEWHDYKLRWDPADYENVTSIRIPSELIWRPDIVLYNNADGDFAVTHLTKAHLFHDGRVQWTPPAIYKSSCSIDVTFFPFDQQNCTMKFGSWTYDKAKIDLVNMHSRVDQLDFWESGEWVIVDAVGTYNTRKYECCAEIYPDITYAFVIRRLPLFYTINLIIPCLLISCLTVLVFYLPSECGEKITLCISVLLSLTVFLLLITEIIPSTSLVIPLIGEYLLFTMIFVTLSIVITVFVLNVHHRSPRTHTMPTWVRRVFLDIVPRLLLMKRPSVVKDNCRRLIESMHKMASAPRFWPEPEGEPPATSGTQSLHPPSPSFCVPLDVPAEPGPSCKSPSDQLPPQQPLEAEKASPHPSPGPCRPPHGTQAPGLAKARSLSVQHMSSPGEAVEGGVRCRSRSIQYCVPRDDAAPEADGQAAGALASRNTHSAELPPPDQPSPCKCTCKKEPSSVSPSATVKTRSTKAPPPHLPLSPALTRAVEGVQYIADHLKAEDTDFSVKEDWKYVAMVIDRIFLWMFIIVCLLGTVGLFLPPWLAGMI
Sequence of Melanocortin receptor 3 (P41968 whole entry): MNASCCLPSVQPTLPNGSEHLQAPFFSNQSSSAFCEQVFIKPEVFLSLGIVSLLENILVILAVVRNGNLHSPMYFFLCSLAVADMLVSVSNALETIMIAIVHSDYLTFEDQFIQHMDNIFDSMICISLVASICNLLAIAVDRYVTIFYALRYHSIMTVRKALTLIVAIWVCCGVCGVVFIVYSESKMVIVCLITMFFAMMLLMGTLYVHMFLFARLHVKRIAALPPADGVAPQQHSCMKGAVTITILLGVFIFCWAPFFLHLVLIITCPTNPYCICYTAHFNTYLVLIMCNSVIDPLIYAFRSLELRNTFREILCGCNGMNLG
Sequence of Histamine H2 receptor (P25021 whole entry): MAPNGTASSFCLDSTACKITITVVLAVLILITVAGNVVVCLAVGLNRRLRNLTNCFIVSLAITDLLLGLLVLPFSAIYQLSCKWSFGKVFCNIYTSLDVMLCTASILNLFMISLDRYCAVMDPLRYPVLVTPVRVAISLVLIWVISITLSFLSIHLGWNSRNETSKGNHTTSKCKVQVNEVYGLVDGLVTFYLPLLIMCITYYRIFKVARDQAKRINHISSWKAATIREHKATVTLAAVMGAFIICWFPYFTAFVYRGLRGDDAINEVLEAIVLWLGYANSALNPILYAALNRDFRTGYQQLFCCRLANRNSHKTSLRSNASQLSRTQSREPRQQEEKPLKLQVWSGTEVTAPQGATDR
Sequence of Beta-1 adrenergic receptor (P08588 whole entry): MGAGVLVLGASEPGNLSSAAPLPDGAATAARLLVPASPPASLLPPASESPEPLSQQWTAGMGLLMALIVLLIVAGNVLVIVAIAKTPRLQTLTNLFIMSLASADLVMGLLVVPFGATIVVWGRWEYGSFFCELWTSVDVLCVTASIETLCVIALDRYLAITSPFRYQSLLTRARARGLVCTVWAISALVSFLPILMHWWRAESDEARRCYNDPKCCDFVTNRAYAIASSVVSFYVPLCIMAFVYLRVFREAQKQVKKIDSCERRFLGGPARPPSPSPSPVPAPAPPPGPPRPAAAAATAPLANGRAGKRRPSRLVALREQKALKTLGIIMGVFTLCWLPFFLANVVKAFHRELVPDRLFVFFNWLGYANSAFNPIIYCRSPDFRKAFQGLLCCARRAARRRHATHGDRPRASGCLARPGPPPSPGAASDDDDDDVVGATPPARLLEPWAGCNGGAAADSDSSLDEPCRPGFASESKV
Sequence of D(3) dopamine receptor (P35462 whole entry): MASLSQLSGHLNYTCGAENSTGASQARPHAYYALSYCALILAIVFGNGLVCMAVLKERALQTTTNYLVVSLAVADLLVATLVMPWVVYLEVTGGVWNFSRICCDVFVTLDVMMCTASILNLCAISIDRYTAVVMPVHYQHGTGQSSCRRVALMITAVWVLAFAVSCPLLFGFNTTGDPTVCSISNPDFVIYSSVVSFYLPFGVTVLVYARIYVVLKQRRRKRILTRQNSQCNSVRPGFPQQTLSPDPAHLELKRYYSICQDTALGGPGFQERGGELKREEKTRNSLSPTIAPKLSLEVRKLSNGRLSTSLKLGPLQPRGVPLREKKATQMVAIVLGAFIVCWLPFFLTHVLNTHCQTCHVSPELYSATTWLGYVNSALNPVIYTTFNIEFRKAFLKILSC
Sequence of Gamma-aminobutyric acid receptor subunit alpha-1 (P62813 whole entry): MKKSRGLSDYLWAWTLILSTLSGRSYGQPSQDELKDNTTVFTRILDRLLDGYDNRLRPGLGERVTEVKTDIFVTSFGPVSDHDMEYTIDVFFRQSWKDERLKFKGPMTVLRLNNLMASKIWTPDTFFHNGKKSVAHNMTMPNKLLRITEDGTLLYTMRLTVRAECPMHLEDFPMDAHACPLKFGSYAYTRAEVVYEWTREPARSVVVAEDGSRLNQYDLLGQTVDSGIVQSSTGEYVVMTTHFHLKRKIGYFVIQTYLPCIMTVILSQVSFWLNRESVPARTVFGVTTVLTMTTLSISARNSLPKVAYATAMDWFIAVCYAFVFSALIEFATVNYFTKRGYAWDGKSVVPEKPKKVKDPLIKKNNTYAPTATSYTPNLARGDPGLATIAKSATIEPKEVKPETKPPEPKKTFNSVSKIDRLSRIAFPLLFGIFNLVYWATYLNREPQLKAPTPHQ
Sequence of Vasopressin V2 receptor (P30518 whole entry): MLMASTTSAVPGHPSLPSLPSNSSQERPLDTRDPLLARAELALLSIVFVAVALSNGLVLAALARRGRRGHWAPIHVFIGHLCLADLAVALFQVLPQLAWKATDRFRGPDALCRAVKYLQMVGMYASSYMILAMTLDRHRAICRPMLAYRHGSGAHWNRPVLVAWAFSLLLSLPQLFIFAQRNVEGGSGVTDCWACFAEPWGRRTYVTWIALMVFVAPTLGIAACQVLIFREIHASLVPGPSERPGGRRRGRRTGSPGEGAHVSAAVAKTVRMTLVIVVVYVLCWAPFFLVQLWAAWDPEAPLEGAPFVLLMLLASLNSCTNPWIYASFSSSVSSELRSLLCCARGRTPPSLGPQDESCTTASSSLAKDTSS

Row | Structure (SMILES) | AC50 [1] [µM] | AC50 [2] [µM] | AC50 [3] [µM] | AC50 [4] [µM] | AC50 [5] [µM] | AC50 [6] [µM] | AC50 [7] [µM] | AC50 [8] [µM] | AC50 [9] [µM] | AC50 [10] [µM] | AC50 [11] [µM] | AC50 [12] [µM] | AC50 [13] [µM] | AC50 [14] [µM]
1 | O=C1CC[C@@H](C(=O)N2CSC[C@H]2C(=O)O)N1 [PIDOTIMOD] ([pGlu]-[Thz]-OH) | > 30 | > 30 | > 30 | > 30 | > 30 | > 30 | > 30 | > 30 | > 30 | > 30 | > 30 | > 30 | > 30 | > 30
2 | COc1cc(C(=O)OCc2cccc(COC(=O)c3cc(OC)c(OC)c(OC)c3)n2)cc(OC)c1OC [PIROZADIL] | > 30 | > 30 | > 30 | > 30 | > 30 | > 30 | > 30 | > 30 | > 30 | > 30 | > 30 | > 30 | > 30 | > 30
3 | CCC(NC(C)C)C(O)c1ccc(O)c2[nH]c(=O)ccc12 (stereo not drawn) [PROCATEROL] | > 30 | > 30 | > 30 | > 30 | > 30 | > 30 | > 30 | > 30 | > 30 | > 30 | > 30 | 17 | > 30 | > 30
4 | CCC(=O)O[C@](Cc1ccccc1)(c1ccccc1)[C@H](C)CN(C)C [PROPOXYPHENE] | > 10 | > 10 | > 30 | > 10 | > 10 | > 10 | > 30 | > 10 | > 30 | > 30 | > 30 | > 10 | > 10 | > 30
5 | CCc1nc(N)nc(N)c1-c1ccc(Cl)cc1 [PYRIMETHAMINE] | > 10 | > 10 | > 10 | > 10 | > 30 | > 30 | > 10 | > 30 | > 30 | > 10 | > 10 | > 10 | > 10 | > 10
6 | C=CC[N+]1([C@H]2C[C@H]3[C@@H]4CC[C@H]5C[C@H](O)[C@@H](N6CCOCC6)C[C@]5(C)[C@H]4CC[C@]3(C)[C@H]2OC(C)=O)CCCC1 [ROCURONIUM] | > 30 | > 30 | > 30 | > 30 | > 30 | > 30 | 1.2 | > 30 | > 30 | > 30 | > 30 | > 30 | > 30 | > 30
7 | CCCN1CCCC[C@H]1C(=O)Nc1c(C)cccc1C [ROPIVACAINE] | > 30 | > 30 | > 30 | > 30 | > 30 | > 30 | > 30 | > 30 | > 30 | > 30 | > 30 | > 30 | > 30 | > 30
8 | CCN1CCCC1CNC(=O)c1cc(S(=O)(=O)CC)ccc1OC (stereo not drawn) [SULTOPRIDE] | > 30 | > 30 | > 30 | > 30 | > 30 | > 30 | > 30 | > 30 | > 30 | > 30 | > 30 | > 30 | > 30 | > 30
9 | CCOC(=O)c1ccc(C#Cc2ccc3c(c2)C(C)(C)CCS3)nc1 [TAZAROTENE] | > 10 | > 10 | > 30 | > 10 | > 30 | > 10 | > 30 | > 30 | > 30 | > 30 | > 30 | > 10 | > 10 | > 30
10 | CCOC(=O)[C@@H](N)Cc1ccc(-c2cc(O[C@H](c3ccc(Cl)cc3-n3ccc(C)n3)C(F)(F)F)nc(N)n2)cc1 [TELOTRISTAT ETHYL] | > 30 | > 30 | > 30 | > 30 | > 30 | > 30 | 11 | > 30 | > 30 | 12 | > 30 | > 30 | > 30 | 3.1
11 | Cn1c(=O)c2c(ncn2CCOC(=O)C(C)(C)Oc2ccc(Cl)cc2)n(C)c1=O [THEOFIBRATE] | > 30 | > 30 | > 30 | > 30 | > 30 | > 30 | > 30 | > 30 | > 30 | > 30 | > 30 | > 30 | > 30 | > 30
12 | COc1cc(C(=O)NC2CCCNC2)cc(OC)c1OC (stereo not drawn) [TROXIPIDE] | > 30 | > 30 | > 30 | > 30 | > 30 | > 30 | > 30 | > 30 | > 30 | > 30 | > 30 | > 30 | > 30 | > 30
